Laboratory results as given in publication PMC10377753, “Pharmacokinetic and pharmacodynamic properties of polymyxin B in Escherichia coli and Klebsiella pneumoniae murine infection models” (Journal of Antimicrobial Chemotherapy, 2023).
Where a name gives a salt, the structure may show the parent alone. Bridge positions count the residues as written; N and C are the ends. Square brackets hold non-standard residues; d marks the D form. Peptide text beside a SMILES is read from it. * marks the point of attachment. X1 = CC[C@H](C)CCCCC(=O)*; Dab = NCC[C@H](N)C(=O)O

What was measured:
[1] = Plasma PK after single subcutaneous dose in infected neutropenic mice, population PK model; assay type: in vivo; conditions: for Time up to which plasma levels were detectable: LOQ 0.2 mg/L
Method: Mice were injected subcutaneously with a 0.1 mL single dose of polymyxin B 2 h after infection (t = 0). The PK of polymyxin B ranging between 0.5 and 64 mg/kg were determined in two mice per dose level. Mice were separated into two groups, with four dose levels studied in the thigh infection model (0.5, 2, 8, 32 mg/kg) and four dose levels studied in the lung infection model (1, 4, 16, 64 mg/kg). At t = 0, two mice were humanely euthanized to determine the bacterial load in the infected organ at the start of infection. At 10 different timepoints, blood was collected under isoflurane anaesthesia, in K3E EDTA tubes (Sarstedt, Nümbracht, Germany) through orbital sinus bleeding, which was immediately followed by cervical dislocation. The collected blood samples were centrifuged immediately at 15 871 RCF for 5 min at 4°C. Plasma was stored at −80°C until analysis.
Polymyxin B concentrations in plasma, BAL and ultrafiltrates were determined by a validated LC-MS/MS method,[18] with a lower limit of quantification (LOQ) of 0.2 mg/L for plasma and 0.05 mg/L for BAL fluid and ultrafiltrates. In this assay, 0.1 mL of plasma or 0.05 mL of BAL fluid or ultrafiltrates was added to 0.05 mL of drug-free plasma, and was mixed with 0.75 mL of phosphate buffer (pH 7.2) and 0.01 mL of internal standard (colistin sulphate, Merck KGaA, Darmstadt, Germany) at 6.25 mg/L for plasma and 5 mg/L for BAL fluid and ultrafiltrates. The samples were briefly vortexed and then centrifuged at 3000 rpm for 5 min. The supernatants (0.8 mL) were loaded onto solid-phase extraction columns (Oasis HLB solid-phase extraction cartridges, 1 mL, 30 mg, Waters, Saint-Quentin-en-Yvelines, France), preconditioned with 1 mL of methanol and followed by 1 mL of water. Columns were washed with 1 mL of water and dried under nitrogen pressure. The analytes were eluted with 0.5% formic acid in methanol and they were evaporated at 45°C under a gentle nitrogen jet stream. The residues were dissolved in 0.1 mL of 0.1% formic acid in water and analysed by LC-MS/MS. The system included an Alliance Waters 2695 LC system module (Waters) coupled with an API Quattro Micro (Waters). Polymyxin B was analysed on an XBridge C18 column (5 µm, 2.1 × 150 mm; Waters). The mobile phase A consisted of 0.1% formic acid in water, and mobile phase B was 0.1% formic acid in acetonitrile. The gradient for mobile phases A and B were respectively set at 75% and 25% with a flow rate of 0.2 mL/min. Electrospray ionization in positive mode was used for the detection of polymyxin B. Ions were analysed in the multiple reaction monitoring, and the following transitions were inspected: m/z 602.1→101 for polymyxin B1, m/z 595.1→101 for polymyxin B2, m/z 585.1→101 for CSTA and m/z 578.1→101 for CSTB. Calibration curves of polymyxin B ranged from 0.1 to 10 mg/L for plasma and ultrafiltrates, and were quantified with a quadratic regression mode. The intraday variability was characterized at four levels (0.3, 1, 2.5 and 10 mg/L) with a precision and bias of <20% for the lowest level, and <15% for the others.
A population PK model was developed using non-linear mixed-effects modelling (NONMEM, version 7.4.2 ICON Development Solutions, Ellicott City, MD, USA). The analysis was performed using the FOCE + I method on logarithmically transformed concentrations and data below the LOQ were omitted. Parameters were calculated for a virtual 1 kg mouse, resulting in pharmacokinetic parameters corresponding on a per kg base. In the first step a structural model was developed, using one- and two-compartment models. The absorption following subcutaneous injections was described using an absorption rate constant (ka). Typical values for central (Vc) and peripheral volume of distribution (Vp), CL and intercompartmental clearance (Q) were estimated. As bioavailability (F) could not be estimated, CL, Vc, Q, and Vp values corresponded to the ratios CL/F, Vc/F, Q/F and Vp/F, respectively. […]

plasma proteins [2] = conditions: mouse, spiked pooled plasma, ultracentrifugation; cited from earlier work
Description: Protein binding of polymyxin B is known to be high. However, a difference was found between the current study (unbound fraction 20%) compared with previous studies (8.6% for polymyxin B,[8] 8.4% for colistin[5]), which affects the PTA. In the present study, ultrafiltration was used for determining the unbound fraction, whilst ultracentrifugation was used in the other studies. With the ultrafiltration method, correction for the NSB to the ultrafiltration membranes was needed. In addition, differences in mouse plasma used for determination of polymyxin B protein binding may (partly) explain the ...

plasma proteins [3] = conditions: clinical studies; cited from earlier work
Method: A previously published population PK model[19] and Monte Carlo simulations was used to estimate the fAUCs of 5000 patients treated with 200 mg q24h (MicLab 2.71) taking into account protein-binding rates ranging from 36% to 98% as previously reported.[20–23] The PTA was calculated for isolates with MICs ranging from 0.25 to 4 mg/L. || In clinical studies, the protein binding of polymyxin B is much higher than reported in mice, with protein binding in plasma up to 99% for polymyxin B.[22],[26],[27] This applies to colistin as well.[5],[28] Therefore, the PK/PD targets based on the unbound fraction are necessary for translating PK/PD data of polymyxin B to the clinic.

CC[C@H](C)CCCCC(=O)N[C@@H](CCN)C(=O)N[C@H](C(=O)N[C@@H](CCN)C(=O)N[C@H]1CCNC(=O)[C@H]([C@@H](C)O)NC(=O)[C@H](CCN)NC(=O)[C@H](CCN)NC(=O)[C@H](CC(C)C)NC(=O)[C@@H](Cc2ccccc2)NC(=O)[C@H](CCN)NC1=O)[C@@H](C)O [polymyxin B, Polymyxin B sulphate salt] (X1-[Dab]T[Dab][Dab][Dab][dF]L[Dab][Dab]T; lactam 4-C)
ka, absorption rate constant for 10 mg/kg dose ([1]; infected neutropenic mice, single s.c. dose 0.5–64 mg/kg, plasma LC-MS/MS, population PK (NONMEM), one-compartment, first-order absorption): 1.63 h⁻¹ | Time up to which plasma levels were detectable ([1]; mouse, s.c., doses 16–64 mg/kg): up to 8 h | Time up to which plasma levels were detectable ([1]; mouse, s.c., doses up to 8 mg/kg): up to 6 h | Time to peak (Tmax) ([1]; mouse, s.c., thigh and lung infection model): ≤ 2 h | CL/F ([1]; mouse, sc, 10 mg/kg, infected neutropenic mice, single s.c. dose 0.5–64 mg/kg, plasma LC-MS/MS, population PK (NONMEM), one-compartment, read-out: CL/F, clearance for 10 mg/kg dose (converted)): 6.4 mL/min/kg | Vd/F ([1]; mouse, sc, infected neutropenic mice, single s.c. dose 0.5–64 mg/kg, plasma LC-MS/MS, population PK (NONMEM), one-compartment, read-out: Vc/F, central volume of distribution): 0.774 L/kg | Dose on CL, power on covariate effect of dose on CL ([1]; population PK model, CL = 0.384 × (DOSE/10)^−0.26): −0.26 | Dose on ka, power on covariate effect of dose on ka ([1]; population PK model, ka = 1.63 × (DOSE/10)^−0.407): −0.407 | Unbound fraction (plasma proteins [2]): 8.6% | Protein binding in plasma (plasma proteins [3]): up to 99%
